This passage reports MIC results from patent US20190077802A1, “DIFLUORO-(2-SUBSTITUTED CARBAMOYL-1,6-DIAZA-BICYCLO [3.2.1] OCT-6-YLOXY) ACETIC ACID COMPOUNDS AND THEIR USE IN TREATMENT OF BACTERIAL INFECTIONS” (WOCKHARDT LIMITED, priority 2015, published 2019).

Experiment in all cases: Agar dilution MIC (CLSI)
On the technique in general: Agar dilution tests growth on a series of plates holding different concentrations.

Experiment [1] relates to KP ATCC 700603. Format: cell-based, K. pneumoniae. The settings on record: Klebsiella pneumoniae, ATCC700603, Mueller Hinton Agar. How it is done:
(§1) The biological activity of representative compounds according to the invention against various bacterial strains was investigated. In a typical study, overnight grown bacterial cultures were diluted appropriately and inoculated on the agar media containing doubling dilutions of the test compounds. Observations for growth or no growth was performed after 16-20 hours of incubation at 35±2° C. in the ambient air. The overall procedure was performed as per Clinical and Laboratory Standards Institute (CLSI) recommendations, (Clinical and Laboratory Standards Institute (CLSI), Performance Standards for Antimicrobial Susceptibility Testing, 20th Informational Supplement, M07-A9, Volume 32, No. 2, 2012). Molten Mueller Hinton Agar (MHA) (BD, USA) containing serial dilutions of each antibacterial agent were poured on to the plates and allowed to solidify. Appropriate suspensions from the freshly grown cultures were prepared in normal saline so that about 10^4 CFU/spot of the organism was delivered on to the drug containing agar plates using automated multipoint inoculator (Mast, UK). The plates were incubated in Biochemical oxygen demand (BOD) incubator at 37° C. for 18 hours and then examined for growth.
(§2) The Table 2 depicts the antibacterial activity profile of compounds according to present invention against various multidrug resistant bacterial strains.

The subject of experiment [2] is E. coli 13351. It counts as cell-based. Conditions: Escherichia coli, Mueller Hinton Agar. How it is done: as §1, §2
Experiment [3] concerns E. coli 13352. Format: cell-based. Conditions: Escherichia coli, Mueller Hinton Agar. How it is done:
as §1, §2

Experiment [4] concerns E. coli 13353. Format: cell-based. Conditions: Escherichia coli, Mueller Hinton Agar. How it is done: as §1, §2
Experiment [5] concerns E. coli 7 MP. Format: cell-based. Conditions: Escherichia coli, Mueller Hinton Agar. The protocol:
as §1, §2

Experiment [6] has as its system E. coli M 138. It counts as cell-based. The settings on record: Escherichia coli, M138, Mueller Hinton Agar. How it is done:
as §1, §2

The test system of experiment [7] is E. coli M 36. It counts as cell-based. The settings on record: Escherichia coli, M36, Mueller Hinton Agar. How it is done: as §1, §2
Experiment [8] deals with E. coli M 49. Format: cell-based. The settings on record: Escherichia coli, M49, Mueller Hinton Agar. The protocol:
as §1, §2

Experiment [9] has as its system E. coli M 50. It counts as cell-based. The settings on record: Escherichia coli, M50, Mueller Hinton Agar. The protocol: as §1, §2
The subject of experiment [10] is E. coli S 18. Format: cell-based. The settings on record: Escherichia coli, S18, Mueller Hinton Agar. The protocol: as §1, §2
Experiment [11] concerns K. pneumoniae H 521. It counts as cell-based. Conditions: Klebsiella pneumoniae, H521, Mueller Hinton Agar. How it is done: as §1, §2
Experiment [12] concerns K. pneumoniae H 522. It counts as cell-based. Conditions: Klebsiella pneumoniae, H522, Mueller Hinton Agar. How it is done:
as §1, §2

For experiment [13], the system named is K. pneumoniae H 523. Format: cell-based. Conditions: Klebsiella pneumoniae, H523, Mueller Hinton Agar. How it is done:
as §1, §2

The test system of experiment [14] is K. pneumoniae H 525. It counts as cell-based. Conditions: Klebsiella pneumoniae, H525, Mueller Hinton Agar. How it is done:
as §1, §2

Experiment [15] relates to E. coli H 483. It counts as cell-based. The settings on record: Escherichia coli, H483, Mueller Hinton Agar. The protocol: as §1, §2

SMILES strings stand for the structures. In brackets after ≈: the same amount, converted by molar mass. Bounds are passed on as bounds.

Broadly, the MIC is the smallest concentration in the dilution series that meets the test's criterion for growth inhibition. A lower MIC goes with greater potency. Regarding `O=C(NOC[C@@H]1CCCN1)[C@@H]1CC[C@@H]2CN1C(=O)N2OC(F)(F)C(=O)O` [Example 1], the minimal inhibitory concentration (MIC) in experiment [1] was greater than 32 µg/mL; in experiment [2] it was 2 µg/mL (≈ 5.29 µM); in [3] it was 2 µg/mL (≈ 5.29 µM); in experiment [4], 2 µg/mL (≈ 5.29 µM); in [5] it was 4 µg/mL (≈ 10.6 µM); in experiment [6] it was 2 µg/mL (≈ 5.29 µM). The minimal inhibitory concentration (MIC) in experiment [7] is 2 µg/mL (≈ 5.29 µM); in experiment [8], 8 µg/mL (≈ 21.1 µM); in [9], 2 µg/mL (≈ 5.29 µM); in experiment [10], 2 µg/mL (≈ 5.29 µM); in experiment [11] it was 4 µg/mL (≈ 10.6 µM); in experiment [12], 2 µg/mL (≈ 5.29 µM). Further, the minimal inhibitory concentration (MIC) in experiment [13] and in [14] was 2 µg/mL (≈ 5.29 µM) throughout.

As to `O=C(NOC[C@H]1CCCN1)[C@@H]1CC[C@@H]2CN1C(=O)N2OC(F)(F)C(=O)O` [Example 2], the MIC in experiment [1] is greater than 32 µg/mL; in [2], 1 µg/mL (≈ 2.64 µM); in experiment [3] it was 1 µg/mL (≈ 2.64 µM); in [4], 0.5 µg/mL (≈ 1.32 µM); in [5], 2 µg/mL (≈ 5.29 µM); in [6], 1 µg/mL (≈ 2.64 µM). In addition, the MIC was 0.5 µg/mL (≈ 1.32 µM) in [7]; 2 µg/mL (≈ 5.29 µM) in experiment [8]; 1 µg/mL (≈ 2.64 µM) in experiment [9]; 1 µg/mL (≈ 2.64 µM) in experiment [11]; 1 µg/mL (≈ 2.64 µM) in [12]; 1 µg/mL (≈ 2.64 µM) in [13]. This compound also had a minimum inhibitory concentration (MIC) in [14] of 1 µg/mL (≈ 2.64 µM).

Take `O=C(NOC1CCNC1)[C@@H]1CC[C@@H]2CN1C(=O)N2OC(F)(F)C(=O)O` (some centres unmarked) [Example 3]: the MIC in [1] was greater than 32 µg/mL; in experiment [2], 4 µg/mL (≈ 11 µM); in experiment [3], 4 µg/mL (≈ 11 µM); in [4], 4 µg/mL (≈ 11 µM); in experiment [5], 8 µg/mL (≈ 22 µM); in [15], greater than 32 µg/mL. For the same compound, the minimum inhibitory concentration (MIC) in [6] came to 4 µg/mL (≈ 11 µM); in experiment [7], 4 µg/mL (≈ 11 µM); in [8] it was 8 µg/mL (≈ 22 µM); in experiment [9], 4 µg/mL (≈ 11 µM); in [10], 16 µg/mL (≈ 43.9 µM); in [11] it was 4 µg/mL (≈ 11 µM). The minimum inhibitory concentration (MIC) in experiment [12], in experiment [13] and in experiment [14] was 4 µg/mL (≈ 11 µM) in each case.

In the case of `O=C(NOC[C@H]1CCCCN1)[C@@H]1CC[C@@H]2CN1C(=O)N2OC(F)(F)C(=O)O` [Example 4], the minimum inhibitory concentration (MIC) in experiment [1] was greater than 32 µg/mL; in experiment [3], 1 µg/mL (≈ 2.55 µM); in [4] it was 1 µg/mL (≈ 2.55 µM); in experiment [5] it was 2 µg/mL (≈ 5.1 µM); in [15], greater than 32 µg/mL; in [6] it was 2 µg/mL (≈ 5.1 µM). Moreover, the minimal inhibitory concentration (MIC) in experiment [7] amounted to 1 µg/mL (≈ 2.55 µM); in experiment [8] it was 4 µg/mL (≈ 10.2 µM); in experiment [9] it was 2 µg/mL (≈ 5.1 µM); in experiment [10] it was 2 µg/mL (≈ 5.1 µM); in [11], 2 µg/mL (≈ 5.1 µM); in experiment [12], 1 µg/mL (≈ 2.55 µM). The MIC in experiment [13] and in [14] was 1 µg/mL (≈ 2.55 µM) each time.

As to `O=C(NOC[C@@H]1CCCCN1)[C@@H]1CC[C@@H]2CN1C(=O)N2OC(F)(F)C(=O)O` [Example 5], the minimum inhibitory concentration (MIC) in experiment [1] was greater than 32 µg/mL; in experiment [2] it was 8 µg/mL (≈ 20.4 µM); in experiment [3] it was 4 µg/mL (≈ 10.2 µM); in [4], 4 µg/mL (≈ 10.2 µM); in [5], 8 µg/mL (≈ 20.4 µM); in [6], 4 µg/mL (≈ 10.2 µM). Moreover, the MIC in experiment [7] was 4 µg/mL (≈ 10.2 µM); in experiment [8] it was 8 µg/mL (≈ 20.4 µM); in experiment [9], 4 µg/mL (≈ 10.2 µM); in [10], 4 µg/mL (≈ 10.2 µM); in experiment [11], 4 µg/mL (≈ 10.2 µM); in [12], 4 µg/mL (≈ 10.2 µM). Besides, the MIC in experiment [13] and in [14] was 4 µg/mL (≈ 10.2 µM) in each case.

Regarding `O=C(NOC[C@H]1CCCCCN1)[C@@H]1CC[C@@H]2CN1C(=O)N2OC(F)(F)C(=O)O` [Example 6], the MIC was greater than 32 µg/mL in experiment [1]; 2 µg/mL (≈ 4.92 µM) in experiment [2]; 2 µg/mL (≈ 4.92 µM) in experiment [3]; 1 µg/mL (≈ 2.46 µM) in [4]; 4 µg/mL (≈ 9.84 µM) in experiment [5]; greater than 32 µg/mL in [15]. Also, the MIC stood at 2 µg/mL (≈ 4.92 µM) in [6]; 1 µg/mL (≈ 2.46 µM) in experiment [7]; 8 µg/mL (≈ 19.7 µM) in [8]; 2 µg/mL (≈ 4.92 µM) in experiment [9]; 2 µg/mL (≈ 4.92 µM) in [10]; 2 µg/mL (≈ 4.92 µM) in experiment [11]. For the same compound, the figures for the MIC in experiment [12], in [13] and in experiment [14] were 2 µg/mL (≈ 4.92 µM), 2 µg/mL (≈ 4.92 µM) and 1 µg/mL (≈ 2.46 µM), respectively.

Regarding `O=C(NOC[C@@H]1CCCCCN1)[C@@H]1CC[C@@H]2CN1C(=O)N2OC(F)(F)C(=O)O` [Example 7], the minimum inhibitory concentration (MIC) in experiment [1] was greater than 32 µg/mL; in [2], 2 µg/mL (≈ 4.92 µM); in experiment [3], 2 µg/mL (≈ 4.92 µM); in [4], 4 µg/mL (≈ 9.84 µM); in experiment [5] it was 4 µg/mL (≈ 9.84 µM); in experiment [6] it was 4 µg/mL (≈ 9.84 µM). Besides, the MIC was 4 µg/mL (≈ 9.84 µM) in experiment [7]; 2 µg/mL (≈ 4.92 µM) in [8]; 2 µg/mL (≈ 4.92 µM) in experiment [9]; 2 µg/mL (≈ 4.92 µM) in experiment [11]; 2 µg/mL (≈ 4.92 µM) in experiment [12]; 2 µg/mL (≈ 4.92 µM) in experiment [13]. Moreover, it took 2 µg/mL (≈ 4.92 µM) to inhibit growth in experiment [14] (MIC).

As for `NCCONC(=O)[C@@H]1CC[C@@H]2CN1C(=O)N2OC(F)(F)C(=O)O` [Example 8], the minimal inhibitory concentration (MIC) in [1] was greater than 32 µg/mL; in [2], 4 µg/mL (≈ 11.8 µM); in experiment [3], 4 µg/mL (≈ 11.8 µM); in [4], 4 µg/mL (≈ 11.8 µM); in [5], 8 µg/mL (≈ 23.6 µM); in experiment [15], greater than 32 µg/mL. Besides, the MIC in [6] was 4 µg/mL (≈ 11.8 µM); in [7], 2 µg/mL (≈ 5.91 µM); in [8], 4 µg/mL (≈ 11.8 µM); in experiment [9], 4 µg/mL (≈ 11.8 µM); in experiment [10], 4 µg/mL (≈ 11.8 µM); in [11], 4 µg/mL (≈ 11.8 µM). Also, the MIC in experiment [12], in experiment [13] and in experiment [14] was 4 µg/mL (≈ 11.8 µM) each time.
